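Grown in 96-well plates, cells were treated for 48 hours with each compound at five concentrations. Insufficient inhibition: endpoint recorded as highest concentration tested. TGI marks complete inhibition of growth.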
Experiments:
Assay in all cases: NCI tumour cell line growth inhibition, 48 h
HL-60(TB) leukemia = system: HL-60(TB) leukemia
MOLT-4 leukemia = system: MOLT-4 leukemia
NCI-H226 lung = system: NCI-H226 lung
SF-268 CNS = system: SF-268 CNS
SK-OV-3 ovarian = system: SK-OV-3 ovarian
SW-620 colon = system: SW-620 colon
UACC-257 melanoma = system: UACC-257 melanoma
UACC-62 melanoma = system: UACC-62 melanoma
786-0 renal = system: 786-0 renal
SNB-19 CNS = system: SNB-19 CNS

Structure (SMILES)	TGI (HL-60(TB) leukemia)	TGI (MOLT-4 leukemia)	TGI (NCI-H226 lung)	TGI (SF-268 CNS)	TGI (SK-OV-3 ovarian)	TGI (SW-620 colon)	TGI (UACC-257 melanoma)	TGI (UACC-62 melanoma)	TGI (786-0 renal)	TGI (SNB-19 CNS)
O=P(Nc1cccc(Cl)c1)(Oc1ccccc1)N(CCCl)CCCl (centres undefined)	> 100 µM	> 100 µM	29.6 µM	31.4 µM	> 100 µM	30.7 µM	27.2 µM	24.4 µM	–	–
C[C@]12CCC(=O)C=C1CC[C@@H]1C2CC[C@@]2(C)C1CC[C@@H]2OC(=O)C12OC1CCC2=O (some centres undefined)	33.5 µM	32.6 µM	38.2 µM	41.2 µM	> 100 µM	32.1 µM	35.9 µM	35.2 µM	30 µM	44.3 µM
COC(=O)CC1NC(=O)C1C(C)(OC)OC (centres undefined)	> 100 µM	> 100 µM	> 100 µM	> 100 µM	–	> 100 µM	> 100 µM	> 100 µM	> 100 µM	> 100 µM
CCOC(=O)C1=C(O)c2ccc(OC)cc2C(=O)C1=O	> 100 µM	> 100 µM	> 100 µM	> 100 µM	> 100 µM	> 100 µM	> 100 µM	> 100 µM	> 100 µM	> 100 µM
NNC(=S)NN/C=C(\C=Nc1ccccc1)[N+](=O)[O-]	> 100 µM	–	> 100 µM	> 100 µM	> 100 µM	> 100 µM	> 100 µM	> 100 µM	> 100 µM	> 100 µM
CN(C)CCNC(=O)c1cccc2[nH]c(-c3ccc(Cl)cc3)nc12	12 µM	5.5 µM	14.4 µM	38.4 µM	25.1 µM	18.3 µM	20.4 µM	17.5 µM	–	31.5 µM
COc1cc(CC2C(=O)OCC2[C@@H](OC(C)=O)c2ccc3c(c2)OCO3)c(Br)c(OC)c1OC (some centres undefined)	> 100 µM	> 100 µM	–	> 100 µM	> 100 µM	> 100 µM	> 100 µM	> 100 µM	> 100 µM	> 100 µM
O=C(NCCC1CN(S(=O)(=O)C(F)(F)F)c2ccccc21)OCc1ccccc1 (centres undefined)	–	> 100 µM	–	> 100 µM	> 100 µM	> 100 µM	> 100 µM	> 100 µM	> 100 µM	> 100 µM
COc1ccc(OC)c(-c2cc(=O)c3cc4c(cc3[nH]2)OCO4)c1	> 26.1 µM	> 84.9 µM	55.6 µM	> 100 µM	17.7 µM	> 100 µM	> 100 µM	> 100 µM	> 100 µM	> 100 µM
O=C1NC2OC(CO)C(O)C(O)C2O1 (centres undefined)	> 100 µM	> 100 µM	–	> 100 µM	> 100 µM	> 100 µM	> 100 µM	> 100 µM	> 100 µM	> 100 µM
CCCCc1c2c(nc3c1CCCC3=O)CCCC2	> 100 µM	> 100 µM	65.6 µM	> 100 µM	> 100 µM	> 100 µM	–	–	> 100 µM	> 100 µM
COc1ccc(C=NCCCN=Cc2ccc(OC)cc2O)c(O)c1	> 100 µM	> 100 µM	59.3 µM	–	–	> 100 µM	> 100 µM	> 100 µM	> 100 µM	> 100 µM
O=C1C(=Cc2ccc([N+](=O)[O-])o2)C(=O)N(CCc2ccccc2)S(=O)(=O)N1CCc1ccccc1	41.9 µM	56.6 µM	41.4 µM	57.8 µM	> 100 µM	33.9 µM	> 100 µM	31 µM	40.3 µM	> 100 µM
COCC1N=C(c2cc(OC)c(OC)c(OC)c2-c2cc3c(cc2[C@@H](C)O)OCO3)O[C@H]1c1ccccc1 (some centres undefined)	> 100 µM	> 100 µM	> 100 µM	> 100 µM	> 100 µM	> 100 µM	> 100 µM	> 100 µM	–	> 100 µM
COc1ccc(/C=C(\C2=NC(=O)CS2)c2nc3ccccc3[nH]2)cc1	> 100 µM	> 100 µM	28.6 µM	> 100 µM	60 µM	> 100 µM	> 100 µM	> 100 µM	–	> 100 µM
COc1cc(CC(=O)c2cc3c(cc2-c2ccccc2)OCO3)cc(OC)c1OC	> 100 µM	> 100 µM	79.3 µM	> 100 µM	> 100 µM	> 100 µM	> 100 µM	–	> 100 µM	> 100 µM
CC(=O)Nc1ccc(C(=O)n2[nH]c(C)c(/C=C3\C(=O)C=Cc4ccccc43)c2=O)cc1	> 100 µM	> 100 µM	> 100 µM	> 100 µM	–	> 100 µM	> 100 µM	–	> 100 µM	> 100 µM
Cc1cc(=O)[nH]c(NNC(C#N)c2ccc(N(C)C)cc2)n1 (centres undefined)	> 100 µM	–	> 100 µM	> 100 µM	> 100 µM	> 100 µM	> 100 µM	> 100 µM	> 100 µM	–
Brc1ccc(C[N+]23CN4CN(CN(C4)C2)C3)cc1	58.2 µM	69 µM	–	> 100 µM	> 100 µM	82.3 µM	> 100 µM	30.5 µM	> 100 µM	> 100 µM

From PubChem BioAssay (NCI)
